Source: PubChem BioAssay AID2060885 (Molecular Pharmacology Branch, DTP, NCI, 2025)

Test system: NCI-H23 complex spheroids with HUVEC/MSC, viability
Assay: Anticancer human tumor NCI-H23 cell line growth inhibition [RAS];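 also: spheroids exposed to compound for 7 days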;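 as to viability, T/C: 100% = DMSO vehicle control viability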
Settings: for IC50: curve of first compound; for viability, T/C: stronger effect = lower value
In short: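 Multi-cell-type spheroids: tumor cells plus HUVEC endothelial cells and mesenchymal stem cells. RAS-pathway inhibitors were combined with targeted agents, each dosed in half-log steps down from clinical Cmax, or from 10 microM when Cmax was unknown.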

[1] = second compound 0.000949 µM, first compound 0.0316 µM
[2] = second compound 0.000949 µM, first compound 0.1 µM
[3] = second compound 0.000949 µM, first compound 0.316 µM
[4] = second compound 0.000949 µM, first compound 1 µM
[5] = second compound 0.003 µM, first compound 0.0316 µM
[6] = second compound 0.003 µM, first compound 0.1 µM
[7] = second compound 0.003 µM, first compound 0.316 µM
[8] = second compound 0.003 µM, first compound 1 µM
[9] = second compound 0.00949 µM, first compound 0.0316 µM
[10] = second compound 0.00949 µM, first compound 0.1 µM
[11] = second compound 0.00949 µM, first compound 0.316 µM
[12] = second compound 0.00949 µM, first compound 1 µM
[13] = second compound 0.03 µM, first compound 0.0316 µM
[14] = second compound 0.03 µM, first compound 0.1 µM
[15] = second compound 0.03 µM, first compound 0.316 µM
[16] = second compound 0.03 µM, first compound 1 µM
[17] = second compound 0.0949 µM, first compound 0.0316 µM
[18] = second compound 0.0949 µM, first compound 0.1 µM
[19] = second compound 0.0949 µM, first compound 0.316 µM
[20] = second compound 0.0949 µM, first compound 1 µM
[21] = second compound 0.3 µM, first compound 0.0316 µM
[22] = second compound 0.3 µM, first compound 0.1 µM
[23] = second compound 0.3 µM, first compound 0.316 µM
[24] = second compound 0.3 µM, first compound 1 µM

## CCC(CC)c1cc(NC2CCC(N)C2)n2nccc2n1 (centres undefined) + CCn1c(-c2cccnc2C(C)OC)c2c3cc(ccc31)N1CCOC(CC(NC(=O)C(C(C)C)N(C)C(=O)C3(F)CCN(C(=O)C#CC(C)(C)N(C)C)CC3)C(=O)N3CCCC(N3)C(=O)OCC(C)(C)C2)C1
Second compound 0.000949 µM
  IC50: < 31.6 nM
Second compound 0.003 µM
  IC50: < 31.6 nM
Second compound 0.00949 µM
  IC50: < 31.6 nM
Second compound 0.03 µM
  IC50: < 31.6 nM
Second compound 0.0949 µM
  IC50: < 31.6 nM
Second compound 0.3 µM
  IC50: < 31.6 nM
[1]
  viability, T/C: 32.7%
[2]
  viability, T/C: 33.7%
[3]
  viability, T/C: 24.4%
[4]
  viability, T/C: 28%
Second compound 0.000949 µM, first compound 3.16 µM
  viability, T/C: 3.12%
Second compound 0.000949 µM, first compound 10 µM
  viability, T/C: 0.38%
[5]
  viability, T/C: 27.1%
[6]
  viability, T/C: 25.2%
[7]
  viability, T/C: 28.3%
[8]
  viability, T/C: 25.9%
Second compound 0.003 µM, first compound 3.16 µM
  viability, T/C: 1.84%
Second compound 0.003 µM, first compound 10 µM
  viability, T/C: 0.31%
[9]
  viability, T/C: 27.7%
[10]
  viability, T/C: 25.1%
[11]
  viability, T/C: 31.2%
[12]
  viability, T/C: 25.8%
Second compound 0.00949 µM, first compound 3.16 µM
  viability, T/C: 1.37%
Second compound 0.00949 µM, first compound 10 µM
  viability, T/C: 0.37%
[13]
  viability, T/C: 25.3%
[14]
  viability, T/C: 28.2%
[15]
  viability, T/C: 28%
[16]
  viability, T/C: 25.3%
Second compound 0.03 µM, first compound 3.16 µM
  viability, T/C: 0.57%
Second compound 0.03 µM, first compound 10 µM
  viability, T/C: 0.34%
[17]
  viability, T/C: 25.7%
[18]
  viability, T/C: 25.3%
[19]
  viability, T/C: 28.1%
[20]
  viability, T/C: 24.1%
Second compound 0.0949 µM, first compound 3.16 µM
  viability, T/C: 0.71%
Second compound 0.0949 µM, first compound 10 µM
  viability, T/C: 0.48%
[21]
  viability, T/C: 22.5%
[22]
  viability, T/C: 24.1%
[23]
  viability, T/C: 27.1%
[24]
  viability, T/C: 20.8%
Second compound 0.3 µM, first compound 3.16 µM
  viability, T/C: 0.58%
Second compound 0.3 µM, first compound 10 µM
  viability, T/C: 0.67%

## CCN1CCN(Cc2ccc(Nc3ncc(F)c(-c4cc(F)c5nc(C)n(C(C)C)c5c4)n3)nc2)CC1 + CCn1c(-c2cccnc2C(C)OC)c2c3cc(ccc31)N1CCOC(CC(NC(=O)C(C(C)C)N(C)C(=O)C3(F)CCN(C(=O)C#CC(C)(C)N(C)C)CC3)C(=O)N3CCCC(N3)C(=O)OCC(C)(C)C2)C1
Second compound 0.000949 µM
  IC50: < 3.16 nM
Second compound 0.003 µM
  IC50: < 3.16 nM
Second compound 0.00949 µM
  IC50: < 3.16 nM
Second compound 0.03 µM
  IC50: < 3.16 nM
Second compound 0.0949 µM
  IC50: < 3.16 nM
Second compound 0.3 µM
  IC50: < 3.16 nM
Second compound 0.000949 µM, first compound 0.00316 µM
  viability, T/C: 27.6%
Second compound 0.000949 µM, first compound 0.01 µM
  viability, T/C: 26.4%
[1]
  viability, T/C: 14%
[2]
  viability, T/C: 15.9%
[3]
  viability, T/C: 14.6%
[4]
  viability, T/C: 10.6%
Second compound 0.003 µM, first compound 0.00316 µM
  viability, T/C: 28.6%
Second compound 0.003 µM, first compound 0.01 µM
  viability, T/C: 20.8%
[5]
  viability, T/C: 16.3%
[6]
  viability, T/C: 15%
[7]
  viability, T/C: 12.9%
[8]
  viability, T/C: 10.8%
Second compound 0.00949 µM, first compound 0.00316 µM
  viability, T/C: 26.9%
Second compound 0.00949 µM, first compound 0.01 µM
  viability, T/C: 21.9%
[9]
  viability, T/C: 16%
[10]
  viability, T/C: 14.2%
[11]
  viability, T/C: 12.3%
[12]
  viability, T/C: 11.5%
Second compound 0.03 µM, first compound 0.00316 µM
  viability, T/C: 30.6%
Second compound 0.03 µM, first compound 0.01 µM
  viability, T/C: 21.5%
[13]
  viability, T/C: 18%
[14]
  viability, T/C: 12.5%
[15]
  viability, T/C: 11.2%
[16]
  viability, T/C: 13.2%
Second compound 0.0949 µM, first compound 0.00316 µM
  viability, T/C: 23.4%
Second compound 0.0949 µM, first compound 0.01 µM
  viability, T/C: 22.1%
[17]
  viability, T/C: 15.8%
[18]
  viability, T/C: 13.2%
[19]
  viability, T/C: 10.2%
[20]
  viability, T/C: 14.9%
Second compound 0.3 µM, first compound 0.00316 µM
  viability, T/C: 22.2%
Second compound 0.3 µM, first compound 0.01 µM
  viability, T/C: 19.3%
[21]
  viability, T/C: 14.2%
[22]
  viability, T/C: 12.1%
[23]
  viability, T/C: 12%
[24]
  viability, T/C: 14.2%
